Data published in ChEMBL document CHEMBL5649169 (ChemMedChem, 2018).

Columns and labels:
[1] = target: Acyl-CoA dehydrogenase family member 10 (Homo sapiens) (UniProt Q6JQN1); also: assay method not described here
[2] = target: Peroxisomal acyl-coenzyme A oxidase 1 (Homo sapiens) (UniProt Q15067); also: assay method not described here
[3] = target: AP-3 complex subunit sigma-1 (Homo sapiens) (UniProt Q92572); also: assay method not described here
[4] = target: Calcium/calmodulin-dependent protein kinase type II subunit gamma (Homo sapiens) (UniProt Q13555); also: assay method not described here
Calcium/calmodulin-dependent protein kinase type II subunit gamma (Homo sapiens), sequence (Q13555 whole entry): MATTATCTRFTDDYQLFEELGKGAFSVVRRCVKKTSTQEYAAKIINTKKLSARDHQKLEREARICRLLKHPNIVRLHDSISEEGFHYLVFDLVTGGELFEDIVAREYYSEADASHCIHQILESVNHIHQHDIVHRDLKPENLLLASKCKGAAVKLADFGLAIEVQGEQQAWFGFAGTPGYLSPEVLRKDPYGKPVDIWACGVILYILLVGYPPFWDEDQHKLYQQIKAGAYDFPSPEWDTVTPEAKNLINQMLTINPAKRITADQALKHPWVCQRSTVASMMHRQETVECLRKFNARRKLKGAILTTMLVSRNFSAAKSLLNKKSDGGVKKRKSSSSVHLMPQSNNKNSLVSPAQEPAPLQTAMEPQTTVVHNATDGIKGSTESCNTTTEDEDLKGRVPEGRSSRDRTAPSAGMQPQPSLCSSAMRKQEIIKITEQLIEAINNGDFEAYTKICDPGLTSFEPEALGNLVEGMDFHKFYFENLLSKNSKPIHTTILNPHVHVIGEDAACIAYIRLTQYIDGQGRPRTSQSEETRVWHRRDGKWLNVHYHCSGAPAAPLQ

[5] = target: Eukaryotic translation initiation factor 3 subunit L (Homo sapiens) (UniProt Q9Y262); also: assay method not described here
[6] = target: ATP-dependent RNA helicase DDX18 (Homo sapiens) (UniProt Q9NVP1); also: assay method not described here
[7] = target: Enoyl-CoA delta isomerase 1, mitochondrial (Homo sapiens) (UniProt P42126); also: assay method not described here
[8] = target: Elongation factor 2 (Homo sapiens) (UniProt P13639); also: assay method not described here
[9] = target: Alpha-enolase (Homo sapiens) (UniProt P06733); also: assay method not described here
Alpha-enolase (Homo sapiens), sequence (P06733 whole entry): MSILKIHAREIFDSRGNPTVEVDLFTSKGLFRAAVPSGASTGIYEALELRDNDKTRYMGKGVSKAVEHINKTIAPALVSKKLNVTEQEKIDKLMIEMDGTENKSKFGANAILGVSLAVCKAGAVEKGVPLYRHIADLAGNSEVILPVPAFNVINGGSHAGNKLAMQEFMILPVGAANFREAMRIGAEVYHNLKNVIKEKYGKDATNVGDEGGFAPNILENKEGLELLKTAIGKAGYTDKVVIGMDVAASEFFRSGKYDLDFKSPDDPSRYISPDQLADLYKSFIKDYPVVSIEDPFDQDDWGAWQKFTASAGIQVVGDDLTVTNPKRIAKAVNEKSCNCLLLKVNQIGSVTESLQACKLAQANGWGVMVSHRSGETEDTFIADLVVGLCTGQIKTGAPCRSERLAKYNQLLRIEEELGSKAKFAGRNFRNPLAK

[10] = target: Small ribosomal subunit protein RACK1 (Homo sapiens) (UniProt P63244); also: assay method not described here
[11] = target: Glutathione reductase, mitochondrial (Homo sapiens) (UniProt P00390); also: assay method not described here
[12] = target: Malate dehydrogenase, cytoplasmic (Homo sapiens) (UniProt P40925); also: assay method not described here
[13] = target: NBAS subunit of NRZ tethering complex (Homo sapiens) (UniProt A2RRP1); also: assay method not described here
[14] = target: Serine/threonine-protein kinase D3 (Homo sapiens) (UniProt O94806); also: assay method not described here
[15] = target: Proteasome activator complex subunit 1 (Homo sapiens) (UniProt Q06323); also: assay method not described here
[16] = target: Glutamine--tRNA ligase (Homo sapiens) (UniProt P47897); also: assay method not described here
[17] = target: Ras-related protein Rab-8A (Homo sapiens) (UniProt P61006); also: assay method not described here
Ras-related protein Rab-8A (Homo sapiens), sequence (P61006 whole entry): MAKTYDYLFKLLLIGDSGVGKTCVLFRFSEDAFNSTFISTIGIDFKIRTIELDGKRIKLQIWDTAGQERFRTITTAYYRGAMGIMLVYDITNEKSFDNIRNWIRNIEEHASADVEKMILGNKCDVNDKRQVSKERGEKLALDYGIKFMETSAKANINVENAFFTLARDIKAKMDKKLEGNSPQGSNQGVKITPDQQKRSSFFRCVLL

[18] = target: Small ribosomal subunit protein uS17 (Homo sapiens) (UniProt P62280); also: assay method not described here
Homo sapiens [19] = species: Homo sapiens; also: assay method not described here
[20] = target: Small ribosomal subunit protein uS7 (Homo sapiens) (UniProt P46782); also: assay method not described here
[21] = target: Serine/threonine-protein kinase SIK2 (Homo sapiens) (UniProt Q9H0K1); also: assay method not described here
Serine/threonine-protein kinase SIK2 (Homo sapiens), sequence (Q9H0K1 whole entry, looked up): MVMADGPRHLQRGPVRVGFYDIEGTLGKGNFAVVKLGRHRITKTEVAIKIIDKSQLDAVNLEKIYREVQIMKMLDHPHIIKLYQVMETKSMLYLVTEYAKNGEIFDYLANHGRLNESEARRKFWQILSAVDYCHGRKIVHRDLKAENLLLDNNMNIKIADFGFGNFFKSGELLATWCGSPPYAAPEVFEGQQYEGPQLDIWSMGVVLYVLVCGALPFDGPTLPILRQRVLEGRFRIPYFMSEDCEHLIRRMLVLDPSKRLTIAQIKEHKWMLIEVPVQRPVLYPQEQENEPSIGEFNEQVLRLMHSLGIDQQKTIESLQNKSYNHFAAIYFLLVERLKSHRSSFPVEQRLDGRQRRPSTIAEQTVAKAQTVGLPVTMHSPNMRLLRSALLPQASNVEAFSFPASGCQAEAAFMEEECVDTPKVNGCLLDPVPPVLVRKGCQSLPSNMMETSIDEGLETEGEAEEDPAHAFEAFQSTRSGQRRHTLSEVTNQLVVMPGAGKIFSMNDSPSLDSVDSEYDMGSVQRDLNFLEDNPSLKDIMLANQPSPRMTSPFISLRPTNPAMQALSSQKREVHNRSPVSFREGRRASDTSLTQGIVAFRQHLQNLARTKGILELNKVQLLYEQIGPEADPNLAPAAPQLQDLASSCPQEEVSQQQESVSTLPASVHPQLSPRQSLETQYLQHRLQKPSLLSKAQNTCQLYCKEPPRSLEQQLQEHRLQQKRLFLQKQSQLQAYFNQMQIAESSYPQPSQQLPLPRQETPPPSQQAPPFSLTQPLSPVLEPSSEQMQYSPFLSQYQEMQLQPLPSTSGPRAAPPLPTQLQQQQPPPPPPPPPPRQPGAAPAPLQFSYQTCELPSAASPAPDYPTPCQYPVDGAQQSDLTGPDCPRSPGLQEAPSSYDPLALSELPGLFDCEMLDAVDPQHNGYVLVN

[22] = target: Exosome RNA helicase MTR4 (Homo sapiens) (UniProt P42285); also: assay method not described here
[23] = target: Spectrin alpha chain, non-erythrocytic 1 (Homo sapiens) (UniProt Q13813); also: assay method not described here
[24] = target: Serine/threonine-protein kinase 26 (Homo sapiens) (UniProt Q9P289); also: assay method not described here
[25] = target: Transportin-3 (Homo sapiens) (UniProt Q9Y5L0); also: assay method not described here
Transportin-3 (Homo sapiens), sequence (Q9Y5L0 whole entry): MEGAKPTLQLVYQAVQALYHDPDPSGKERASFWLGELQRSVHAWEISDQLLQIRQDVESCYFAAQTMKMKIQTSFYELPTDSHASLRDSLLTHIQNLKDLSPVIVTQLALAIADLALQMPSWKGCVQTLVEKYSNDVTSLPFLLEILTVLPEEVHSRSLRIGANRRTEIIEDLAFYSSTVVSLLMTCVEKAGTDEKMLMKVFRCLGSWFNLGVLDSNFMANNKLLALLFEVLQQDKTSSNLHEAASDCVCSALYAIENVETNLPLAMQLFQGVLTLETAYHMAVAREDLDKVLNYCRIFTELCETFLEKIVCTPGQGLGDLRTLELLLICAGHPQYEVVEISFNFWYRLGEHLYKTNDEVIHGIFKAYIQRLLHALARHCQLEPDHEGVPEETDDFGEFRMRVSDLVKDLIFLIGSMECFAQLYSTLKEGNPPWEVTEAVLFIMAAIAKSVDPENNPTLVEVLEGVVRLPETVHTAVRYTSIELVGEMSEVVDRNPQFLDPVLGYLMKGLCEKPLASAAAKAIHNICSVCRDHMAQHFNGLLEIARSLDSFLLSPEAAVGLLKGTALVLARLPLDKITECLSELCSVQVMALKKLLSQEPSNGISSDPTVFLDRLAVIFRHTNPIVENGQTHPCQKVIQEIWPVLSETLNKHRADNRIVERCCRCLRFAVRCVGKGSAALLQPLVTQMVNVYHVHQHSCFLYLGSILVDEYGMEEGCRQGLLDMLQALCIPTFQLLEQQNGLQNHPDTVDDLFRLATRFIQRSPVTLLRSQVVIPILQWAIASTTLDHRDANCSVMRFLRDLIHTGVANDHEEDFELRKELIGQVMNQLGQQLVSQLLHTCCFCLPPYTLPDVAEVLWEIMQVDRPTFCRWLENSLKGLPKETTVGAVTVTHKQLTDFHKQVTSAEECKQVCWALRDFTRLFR

[26] = target: Valine--tRNA ligase (Homo sapiens) (UniProt P26640); also: assay method not described here
[27] = target: Cytochrome c oxidase assembly protein COX14 (Homo sapiens) (UniProt Q96I36); also: assay method not described here
Cytochrome c oxidase assembly protein COX14 (Homo sapiens), sequence (Q96I36 whole entry): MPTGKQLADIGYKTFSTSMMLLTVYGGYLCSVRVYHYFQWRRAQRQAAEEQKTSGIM

Copine-4 (Homo sapiens) = Copine-4 (Homo sapiens) (UniProt Q96A23); also: assay method not described here
Homo sapiens [28] = species: Homo sapiens; remark: listed apart in the source; also: assay method not described here
[29] = target: Cell growth-regulating nucleolar protein (Homo sapiens) (UniProt Q9NX58); also: assay method not described here
[30] = target: c-Myc-binding protein (Homo sapiens) (UniProt Q99417); also: assay method not described here
[31] = target: Unconventional myosin-Ig (Homo sapiens) (UniProt B0I1T2); also: assay method not described here
[32] = target: Phosphorylated adapter RNA export protein (Homo sapiens) (UniProt Q9H814); also: assay method not described here
[33] = target: Phosphatidylinositol 4,5-bisphosphate 3-kinase catalytic subunit beta isoform (Homo sapiens) (UniProt P42338); also: assay method not described here
[34] = target: Serine/threonine-protein phosphatase 4 regulatory subunit 3A (Homo sapiens) (UniProt Q6IN85); also: assay method not described here
[35] = target: Signal recognition particle 19 kDa protein (Homo sapiens) (UniProt P09132); also: assay method not described here
[36] = target: STE20-related kinase adapter protein alpha (Homo sapiens) (UniProt Q7RTN6); also: assay method not described here
Ephrin type-A receptor 2 = Ephrin type-A receptor 2 (Homo sapiens, UniProt P29317); test: Inhibition of Nano Luc-fused full length C-terminal EPHA2 (unknown origin) expressed in HEK293T cells using NanoGlo as substrate incubated for 2 hrs in presence of tracer by NanoBRET assay; format: cell-based
Erlin-2 (Homo sapiens) = Erlin-2 (Homo sapiens) (UniProt O94905); also: assay method not described here
[37] = target: Trifunctional purine biosynthetic protein adenosine-3 (Homo sapiens) (UniProt P22102); also: assay method not described here
[38] = target: Very-long-chain (3R)-3-hydroxyacyl-CoA dehydratase 3 (Homo sapiens) (UniProt Q9P035); also: assay method not described here
[39] = target: La-related protein 1 (Homo sapiens) (UniProt Q6PKG0); also: assay method not described here
[40] = target: NAD(P) transhydrogenase, mitochondrial (Homo sapiens) (UniProt Q13423); also: assay method not described here
[41] = target: Protein-L-isoaspartate(D-aspartate) O-methyltransferase (Homo sapiens) (UniProt P22061); also: assay method not described here
[42] = target: Protein PRRC2C (Homo sapiens) (UniProt Q9Y520); also: assay method not described here
[43] = target: Reticulon-3 (Homo sapiens) (UniProt O95197); also: assay method not described here

Peroxisomal acyl-coenzyme A oxidase 1 (Homo sapiens), sequence (Q15067 whole entry): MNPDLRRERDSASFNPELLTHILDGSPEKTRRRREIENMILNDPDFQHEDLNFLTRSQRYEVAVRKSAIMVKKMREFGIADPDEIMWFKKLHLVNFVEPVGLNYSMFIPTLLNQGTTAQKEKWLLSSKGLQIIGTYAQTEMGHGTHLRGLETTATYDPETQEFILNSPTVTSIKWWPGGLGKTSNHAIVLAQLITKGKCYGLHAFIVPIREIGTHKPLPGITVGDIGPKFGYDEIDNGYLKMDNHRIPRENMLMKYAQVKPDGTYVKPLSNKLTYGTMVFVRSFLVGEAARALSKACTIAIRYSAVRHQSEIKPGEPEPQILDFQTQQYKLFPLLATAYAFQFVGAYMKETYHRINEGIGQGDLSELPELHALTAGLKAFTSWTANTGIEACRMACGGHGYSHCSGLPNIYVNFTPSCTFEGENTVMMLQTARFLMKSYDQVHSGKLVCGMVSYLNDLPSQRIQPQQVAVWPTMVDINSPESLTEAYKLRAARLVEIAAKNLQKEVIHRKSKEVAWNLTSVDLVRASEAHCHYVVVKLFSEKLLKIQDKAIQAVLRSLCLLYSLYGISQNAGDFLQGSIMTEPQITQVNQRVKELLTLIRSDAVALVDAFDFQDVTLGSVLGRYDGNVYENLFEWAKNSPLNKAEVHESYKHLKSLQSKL
Acyl-CoA dehydrogenase family member 10 (Homo sapiens), sequence (Q6JQN1 whole entry): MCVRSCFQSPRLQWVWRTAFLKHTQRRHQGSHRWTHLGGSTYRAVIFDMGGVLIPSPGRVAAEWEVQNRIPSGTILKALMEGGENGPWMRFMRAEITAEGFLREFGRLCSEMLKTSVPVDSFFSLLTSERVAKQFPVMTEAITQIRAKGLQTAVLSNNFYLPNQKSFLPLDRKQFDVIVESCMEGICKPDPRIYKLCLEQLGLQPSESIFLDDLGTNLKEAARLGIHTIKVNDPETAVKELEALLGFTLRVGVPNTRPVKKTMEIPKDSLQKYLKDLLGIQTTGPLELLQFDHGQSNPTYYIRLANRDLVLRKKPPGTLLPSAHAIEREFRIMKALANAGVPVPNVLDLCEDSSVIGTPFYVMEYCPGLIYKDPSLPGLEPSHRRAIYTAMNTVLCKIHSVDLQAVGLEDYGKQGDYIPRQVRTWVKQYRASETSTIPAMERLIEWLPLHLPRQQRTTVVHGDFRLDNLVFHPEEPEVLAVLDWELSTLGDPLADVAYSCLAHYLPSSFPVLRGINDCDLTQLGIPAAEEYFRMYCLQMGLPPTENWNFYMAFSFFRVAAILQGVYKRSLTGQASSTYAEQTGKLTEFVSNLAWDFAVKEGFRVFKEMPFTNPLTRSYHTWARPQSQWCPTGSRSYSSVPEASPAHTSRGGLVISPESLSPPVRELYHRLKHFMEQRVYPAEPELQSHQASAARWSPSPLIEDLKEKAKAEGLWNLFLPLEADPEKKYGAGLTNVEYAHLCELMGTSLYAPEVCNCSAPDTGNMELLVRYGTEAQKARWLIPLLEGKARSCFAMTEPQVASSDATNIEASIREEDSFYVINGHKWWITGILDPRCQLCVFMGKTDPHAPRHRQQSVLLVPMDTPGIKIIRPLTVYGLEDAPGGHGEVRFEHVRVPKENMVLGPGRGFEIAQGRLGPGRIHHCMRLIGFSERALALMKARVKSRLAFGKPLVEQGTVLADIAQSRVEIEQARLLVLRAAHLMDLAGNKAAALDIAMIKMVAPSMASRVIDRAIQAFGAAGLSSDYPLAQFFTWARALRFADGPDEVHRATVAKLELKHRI
AP-3 complex subunit sigma-1 (Homo sapiens), sequence (Q92572 whole entry, one chain of several): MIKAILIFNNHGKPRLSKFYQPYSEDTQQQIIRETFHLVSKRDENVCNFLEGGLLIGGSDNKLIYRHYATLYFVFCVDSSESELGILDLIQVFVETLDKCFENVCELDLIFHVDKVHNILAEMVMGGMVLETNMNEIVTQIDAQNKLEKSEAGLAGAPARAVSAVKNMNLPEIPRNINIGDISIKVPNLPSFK

In the case of Cc1ccc(C(=O)Nc2cccc(C(F)(F)F)c2)cc1Nc1nc(-c2cccnc2)nc2c1cnn2C, the ED50 [1] is reported as 11.5 µM, the ED50 [2] is reported as 15.2 µM and the ED50 [3] is reported as 116 µM. The ED50 [4] was 0.177 µM, the ED50 [5] was 2.5 µM and the ED50 [6] was 0.0244 µM. For the same compound, the ED50 [7] was 5.02 µM, the ED50 [8] was 4.03 µM and the ED50 [9] was 4.37 µM. It also gave an ED50 [10] of 2.87 µM, an ED50 [11] of 8.81 µM and an ED50 [12] of 91.4 µM. For the same compound, the ED50 [13] was 0.0417 µM, the ED50 [14] was 0.0978 µM and the ED50 [15] was 2570 µM. For the same compound, the ED50 [16] was 0.107 µM, the ED50 [17] was 23.3 µM and the ED50 [18] was 0.0251 µM. For the same compound, the ED50 (Homo sapiens [19]) was 3.75 µM, the ED50 [20] was 0.176 µM and the ED50 [21] was 2.14 µM. The ED50 [22] was 0.385 µM, the ED50 [23] was 0.08 µM and the ED50 [24] was 0.27 µM. For the same compound, the ED50 [25] was 19 µM, the ED50 [26] was 2.39 µM and the ED50 [27] was 0.00496 µM. For the same compound, the ED50 (Copine-4 (Homo sapiens)) was 0.00867 µM, the ED50 (Homo sapiens [28]) was 11.8 µM and the ED50 [29] was 4.37 µM. The ED50 [30] was 249 µM, the ED50 [31] was 0.00217 µM and the ED50 [32] was 3.51 µM. The ED50 [33] was 0.00163 µM, the ED50 [34] was 0.033 µM and the ED50 [35] was 10.1 µM. The ED50 [36] was 0.0198 µM.
Cc1ccc(C(=O)Nc2cccc(C(F)(F)F)c2)cc1Nc1nc(-c2cccnc2)nc2nn(C)cc12 showed an IC50 (Ephrin type-A receptor 2) of 0.163 µM, an ED50 [1] of 0.434 µM and an ED50 [2] of 2.69 µM. For the same compound, the ED50 [3] was 2.47 µM, the ED50 [4] was 0.0517 µM and the ED50 [5] was 0.0714 µM. The ED50 [6] was 0.0164 µM, the ED50 [7] was 64 µM and the ED50 [8] was 12.5 µM. It also gave an ED50 [9] of 0.053 µM, an ED50 (Erlin-2 (Homo sapiens)) of 3.06 µM and an ED50 [37] of 0.136 µM. The ED50 [11] was 24.7 µM, the ED50 [38] was 0.0173 µM and the ED50 [39] was 1.69 µM. The ED50 [13] was 22.4 µM, the ED50 [40] was 0.00568 µM and the ED50 [41] was 0.393 µM. The ED50 [14] was 1.55 µM, the ED50 [42] was 2.52 µM and the ED50 [15] was 2.59 µM. For the same compound, the ED50 [16] was 17 µM, the ED50 [17] was 3690 µM and the ED50 [18] was 0.0189 µM. For the same compound, the ED50 (Homo sapiens [19]) was 0.285 µM, the ED50 [20] was 0.0501 µM and the ED50 [43] was 0.0206 µM. For the same compound, the ED50 [21] was 8.18 µM, the ED50 [22] was 4330 µM and the ED50 [23] was 0.12 µM. For the same compound, the ED50 [25] was 0.669 µM and the ED50 [26] was 0.0195 µM.
